Source: article PMC12799362, “The effect of dimeric bisbenzimidazoles on the activity of DNA repair enzymes TDP1, TDP2, PARP1 and PARP2” (Vavilov Journal of Genetics and Breeding, 2025)

Legend:
[1] = target: T1, tyrosyl-DNA phosphodiesterase 1 (TDP1) (Homo sapiens, UniProt Q9NUW8); experiment: Real-time fluorescent detection of TDP1 activity (BHQ1 cleavage from 3′-end of single-stranded FAM oligonucleotide); format: biochemical; conditions: recombinant TDP1 1.5 nM, 50 nM single-stranded oligonucleotide, 26 °C; mean ± SD, at least three replicates
T1 construct: made in house; host or cells: E. coli
Procedure: (§1) Recombinant human proteins tyrosyl-DNA phosphodiesterase 1 (TDP1) and tyrosyl-DNA phosphodiesterase 2 (TDP2) were expressed in the E. coli system, poly(ADP-ribose) polymerase 1 (PARP1) and poly(ADP-ribose) polymerase 2 (PARP2) were expressed in insect cells using a baculovirus expression system and purified as described in (Sukhanova et al., 2004; Sherstyuk et al., 2019; Dyrkheeva et al., 2020, 2021).
Determination of TDP1 activity. The reaction mixture (200 μl) for real-time fluorescent detection of TDP1 enzyme activity (Zakharenko et al., 2015) contained TDP1 reaction buffer (50 mM Tris-HCl, pH 8.0, 50 mM NaCl, and 7 mM β-mercaptoethanol), 50 nM oligonucleotide 5′-FAM-AAC GTC AGG GTC TTC C-BHQ1-3′, the test compound at various concentrations, and TDP1 at a final concentration of 1.5 nM. The reaction mixtures were incubated at a constant temperature of 26 °C in a POLARstar OPTIMA microplate fluorometer (BMG LABTECH, GmbH, Ortenberg, Germany). Fluorescence intensity (Ex485/Em520 nm) was measured every minute for 10 min. Mean values of half-maximal inhibitory concentration (IC50 – the concentration of the compound that inhibited 50 % of enzyme activity compared to the untreated control well containing only enzyme and substrate) were determined using a dose-response curve of the fluorescence signal level versus inhibitor concentration and calculated using MARS Data Analysis 2.0 (BMG LABTECH). Kinetic curves were obtained in at least three independent experiments and statistically processed in OriginPro 8.6.0 (OriginLab, Northampton, Massachusetts, USA).
The third group of compounds includes derivatives of the monomeric compound MB2Py(Ac), which is an isosteric analog of MB3, due to the fact that the pyrrolecarboxamide fragment contained in its structure can act as a hydrogen atom donor at the carboxamide nitrogen for hydrogen bond formation, in a position analogous to benzimidazole. Dimeric derivatives are represented by the DB2Py(n) series containing n-alkyldicarboxylic acids as a linker. This series is represented by a set of compounds containing 1, 3, 4, 5, 7, 9, and 11 methylene units, which allowed for a more accurate assessment of the dependence of the inhibitory activity of compounds on spacer length. The DB2Py(n) series differs from the DB3(n) series by the presence, in addition to the bisbenzimidazole structure, of a pyrrolecarboxamide structure, which is a fragment of the AT-specific antibiotic netropsin.Using the real-time fluorescence analysis method, halfmaximal inhibitory concentration (IC50) values of the studied compounds (see the Table) were obtained in the reaction of BHQ1 cleavage from the 3′-end of the oligonucleotide by TDP1, which led to an increase in FAM fluorescence at the 5′-end of the chain (Zakharenko et al., 2015). It should also be noted that a single-stranded oligonucleotide was used as substrate to exclude the binding of dimeric bisbenzimidazoles as minor-groove ligands to the DNA substrate and direct their action toward the enzymatic target.

[2] = target: T2, tyrosyl-DNA phosphodiesterase 2 (TDP2) (Homo sapiens, UniProt O95551); experiment: TDP2 activity, removal of 5′-tyrosine from oligonucleotide substrate, denaturing PAGE; format: biochemical; conditions: inhibitor 500 μM, TDP2 200 nM, substrate 100 nM, 10 min, 37 °C; mean ± SD; read-out: TDP2 % of residual activity (500 μM)
T2 construct: made in house; host or cells: E. coli
T2 sequence (O95551 1-362): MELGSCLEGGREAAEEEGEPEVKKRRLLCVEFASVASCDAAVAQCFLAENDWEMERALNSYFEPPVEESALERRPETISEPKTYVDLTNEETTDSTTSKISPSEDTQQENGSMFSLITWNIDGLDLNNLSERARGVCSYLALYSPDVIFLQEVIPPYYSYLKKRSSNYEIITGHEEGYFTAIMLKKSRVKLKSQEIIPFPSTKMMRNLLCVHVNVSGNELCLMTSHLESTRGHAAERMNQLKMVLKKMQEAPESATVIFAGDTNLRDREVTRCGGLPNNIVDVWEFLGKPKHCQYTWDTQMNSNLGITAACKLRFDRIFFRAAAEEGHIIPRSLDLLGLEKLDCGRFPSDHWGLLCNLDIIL
Text: as §1
Determination of TDP2 activity. For determination of TDP2 enzyme activity, an oligonucleotide 5′-tyrosine-AAC GTC AGG GTC TTC C-FAM-3′ containing a 6-FAM label at the 3′-end and an L-tyrosine residue attached via the phenolic OH group to the 5′-terminal phosphate was used as substrate, synthesized at the Russian-French-Japanese Laboratory of Bionanotechnology of Novosibirsk State University as described in (Dyrkheeva et al., 2021). The substrate at a concentration of 100 nM was incubated with TDP2 at a concentration of 200 nM in the absence or presence of inhibitor (500 μM) for 10 min at 37 °C in buffer containing 50 mM Tris-HCl, pH 8.0, 50 mM NaCl, 7 mM β-mercaptoethanol (Dyrkheeva et al., 2021). The reaction was stopped by addition of PAGE loading buffer (TBE, 10 % formamide, 7 M urea, 20 mM EDTA, 0.1 % xylene cyanol, and 0.1 % bromophenol blue). The samples were then heated at 90 °C for 5 min. The enzymatic reaction products were separated by electrophoresis in 20 % denaturing PAGE with 7 M urea at an acrylamide to bisacrylamide ratio of 19:1. A high-resolution Typhoon FLA 9500 laser scanner (GE Healthcare, Chicago, Illinois, USA) was used for gel scanning and visualization, and the data were analyzed using QuantityOne 4.6.7 software (Bio- Rad Laboratories, Inc., Hercules, California, USA). At least three independent experiments were performed, and statistical processing was carried out using OriginPro 8.6.0 (OriginLab, Northampton, Massachusetts, USA).
To study the effect of the studied compounds on TDP2 activity, we tested the ability of this enzyme to remove the tyrosine residue from the 5′-end of the oligonucleotide substrate in the absence and presence of inhibitors, as described in (Dyrkheeva et al., 2021).

[3] = target: T3, poly(ADP-ribose) polymerase 1 (PARP1) (Homo sapiens, UniProt P09874); experiment: PARP1 auto-poly(ADP-ribosyl)ation with [32P]-NAD+; format: biochemical; conditions: compound 500 μM, PARP1 200 nM, 0.3 mM [32P]-NAD+, 2 min, 37 °C; mean ± SD; read-out: PARP1 % of residual activity (500 μM)
T3 construct: made in house; host or cells: insect cells (baculovirus expression system)
Text: as §1
(§2) Determination of PARP1 and PARP2 activity. For determination of PARP1 and PARP2 enzyme activity in the presence and absence of test compounds, radiolabeled [32P]-NAD⁺ was synthesized from α-[32P]-ATP according to the protocol (Sherstyuk et al., 2019). The auto-poly(ADPribosyl) ation reaction was performed in buffer for PARP1: 50 mM Tris-HCl, pH 8.0, 10 mM MgCl2, 150 mM NaCl, and 7 mM β-mercaptoethanol, as well as 2 A260 units/ml activated DNA, 0.3 mM [32P]-NAD⁺ at 37 °C. The reaction was initiated by addition of PARP1 to 200 nM and carried out for 2 min
(§3) The buffer for PARP2 contained: 50 mM Tris-HCl, pH 8.0, 3 mM spermine, 150 mM NaCl, and 7 mM β-mercaptoethanol, 2 A260 units/ml activated DNA, 0.6 mM [32P]-NAD⁺ at 37 °C. The reaction was initiated by addition of PARP2 to 600 nM, and the reaction mixtures were incubated for 5 min. The reaction was stopped by placing 5 μl aliquots on Whatman 1 paper filters impregnated with 5 % trichloroacetic acid (TCA). The filters were washed with 5 % TCA four times and air-dried after removal of TCA with 90 % ethanol. The incorporation of the radioactive label into the reaction product was calculated using a Typhoon FLA 9500 scanner (GE Healthcare, Chicago, Illinois, USA). At least three independent experiments were performed.

[4] = tested on: poly(ADP-ribose) polymerase 2 (PARP2); experiment: PARP2 auto-poly(ADP-ribosyl)ation with [32P]-NAD+; format: biochemical, human; conditions: compound 500 μM, PARP2 600 nM, 0.6 mM [32P]-NAD+, 5 min, 37 °C; mean ± SD
Text: as §1, §2, §3

T1 sequence (Q9NUW8 whole entry): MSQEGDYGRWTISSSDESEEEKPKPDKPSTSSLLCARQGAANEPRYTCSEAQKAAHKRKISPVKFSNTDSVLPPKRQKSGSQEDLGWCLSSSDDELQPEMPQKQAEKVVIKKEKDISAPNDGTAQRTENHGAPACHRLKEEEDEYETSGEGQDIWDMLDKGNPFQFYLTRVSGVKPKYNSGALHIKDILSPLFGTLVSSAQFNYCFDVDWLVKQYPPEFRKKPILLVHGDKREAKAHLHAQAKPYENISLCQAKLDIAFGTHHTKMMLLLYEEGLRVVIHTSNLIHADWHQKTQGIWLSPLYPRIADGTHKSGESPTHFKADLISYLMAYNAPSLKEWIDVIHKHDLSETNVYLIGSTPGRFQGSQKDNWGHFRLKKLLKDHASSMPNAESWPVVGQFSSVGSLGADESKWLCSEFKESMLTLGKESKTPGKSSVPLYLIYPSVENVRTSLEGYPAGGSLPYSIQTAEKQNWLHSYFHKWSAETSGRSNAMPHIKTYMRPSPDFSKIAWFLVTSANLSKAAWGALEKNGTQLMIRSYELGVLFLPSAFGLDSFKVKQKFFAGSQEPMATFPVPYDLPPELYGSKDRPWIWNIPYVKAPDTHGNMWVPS
T3 sequence (P09874 whole entry): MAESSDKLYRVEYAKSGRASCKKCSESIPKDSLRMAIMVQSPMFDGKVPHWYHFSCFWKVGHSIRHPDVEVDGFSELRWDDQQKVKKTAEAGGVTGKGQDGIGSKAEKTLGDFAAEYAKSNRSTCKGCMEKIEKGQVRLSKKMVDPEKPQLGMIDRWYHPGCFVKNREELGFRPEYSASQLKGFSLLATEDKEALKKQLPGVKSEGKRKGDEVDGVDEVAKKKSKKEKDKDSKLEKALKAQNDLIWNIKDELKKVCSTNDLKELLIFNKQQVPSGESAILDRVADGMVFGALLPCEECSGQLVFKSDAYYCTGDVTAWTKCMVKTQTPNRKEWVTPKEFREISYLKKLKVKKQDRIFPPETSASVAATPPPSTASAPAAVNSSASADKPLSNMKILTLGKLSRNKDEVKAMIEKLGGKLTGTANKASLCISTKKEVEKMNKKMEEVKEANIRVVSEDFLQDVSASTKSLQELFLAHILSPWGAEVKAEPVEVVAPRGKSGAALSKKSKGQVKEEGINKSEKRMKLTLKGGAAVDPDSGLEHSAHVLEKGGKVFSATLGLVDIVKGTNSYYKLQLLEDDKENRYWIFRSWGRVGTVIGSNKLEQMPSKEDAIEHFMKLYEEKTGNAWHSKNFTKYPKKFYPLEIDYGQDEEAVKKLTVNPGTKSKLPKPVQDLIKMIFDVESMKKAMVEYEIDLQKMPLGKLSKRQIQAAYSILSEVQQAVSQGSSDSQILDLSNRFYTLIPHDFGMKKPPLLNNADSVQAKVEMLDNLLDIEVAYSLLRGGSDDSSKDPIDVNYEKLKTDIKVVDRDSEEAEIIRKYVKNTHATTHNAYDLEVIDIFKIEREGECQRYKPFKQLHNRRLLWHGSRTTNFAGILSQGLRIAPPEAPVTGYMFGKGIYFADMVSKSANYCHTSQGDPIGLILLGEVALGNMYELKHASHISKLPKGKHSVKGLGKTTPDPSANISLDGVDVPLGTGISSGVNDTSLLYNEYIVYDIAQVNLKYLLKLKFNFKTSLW

SMILES	IC50 [1]	remaining activity at 500 µM [2]	remaining activity at 500 µM [3]	PARP2 % of residual activity (500 μM) [4]
CN1CCN(c2ccc3nc(-c4ccc5nc(CNC(=O)CN6CCN(CC(=O)NCc7nc8ccc(-c9nc%10ccc(N%11CCN(C)CC%11)cc%10[nH]9)cc8[nH]7)CC6)[nH]c5c4)[nH]c3c2)CC1 [DB2P(1)]	6000 ± 4000 nM	66 ± 7%	57 ± 16%	~ 100%
CN1CCN(c2ccc3nc(-c4ccc5nc(CNC(=O)CCN6CCN(CCC(=O)NCc7nc8ccc(-c9nc%10ccc(N%11CCN(C)CC%11)cc%10[nH]9)cc8[nH]7)CC6)[nH]c5c4)[nH]c3c2)CC1 [DB2P(2)]	9000 ± 3000 nM	44 ± 11%	51 ± 15%	80 ± 20%
CN1CCN(c2ccc3nc(-c4ccc5nc(CNC(=O)CCCN6CCN(CCCC(=O)NCc7nc8ccc(-c9nc%10ccc(N%11CCN(C)CC%11)cc%10[nH]9)cc8[nH]7)CC6)[nH]c5c4)[nH]c3c2)CC1 [DB2P(3)]	4100 ± 600 nM	36 ± 7%	37 ± 10%	64 ± 16%
CN1CCN(c2ccc3nc(-c4ccc5nc(CNC(=O)CCCCN6CCN(CCCCC(=O)NCc7nc8ccc(-c9nc%10ccc(N%11CCN(C)CC%11)cc%10[nH]9)cc8[nH]7)CC6)[nH]c5c4)[nH]c3c2)CC1 [DB2P(4)]	2300 ± 300 nM	44 ± 11%	33 ± 13%	85 ± 13%
CCCn1cc(NC(=O)CC(=O)Nc2cc(-c3nc4ccc(-c5nc6ccc(N7CCN(C)CC7)cc6[nH]5)cc4[nH]3)n(CCC)c2)cc1-c1nc2ccc(-c3nc4ccc(N5CCN(C)CC5)cc4[nH]3)cc2[nH]1 [DB2Py(1)]	250 ± 50 nM	55 ± 3%	~100%	~ 100%
CCCn1cc(NC(=O)CCCC(=O)Nc2cc(-c3nc4ccc(-c5nc6ccc(N7CCN(C)CC7)cc6[nH]5)cc4[nH]3)n(CCC)c2)cc1-c1nc2ccc(-c3nc4ccc(N5CCN(C)CC5)cc4[nH]3)cc2[nH]1 [DB2Py(3)]	410 ± 90 nM	70 ± 11%	~100%	~ 100%
CCCn1cc(NC(=O)CCCCC(=O)Nc2cc(-c3nc4ccc(-c5nc6ccc(N7CCN(C)CC7)cc6[nH]5)cc4[nH]3)n(CCC)c2)cc1-c1nc2ccc(-c3nc4ccc(N5CCN(C)CC5)cc4[nH]3)cc2[nH]1 [DB2Py(4)]	400 ± 150 nM	~100%	~100%	~ 100%
CCCn1cc(NC(=O)CCCCCC(=O)Nc2cc(-c3nc4ccc(-c5nc6ccc(N7CCN(C)CC7)cc6[nH]5)cc4[nH]3)n(CCC)c2)cc1-c1nc2ccc(-c3nc4ccc(N5CCN(C)CC5)cc4[nH]3)cc2[nH]1 [DB2Py(5)]	350 ± 130 nM	~100%	~100%	~ 100%
CCCn1cc(NC(=O)CCCCCCCC(=O)Nc2cc(-c3nc4ccc(-c5nc6ccc(N7CCN(C)CC7)cc6[nH]5)cc4[nH]3)n(CCC)c2)cc1-c1nc2ccc(-c3nc4ccc(N5CCN(C)CC5)cc4[nH]3)cc2[nH]1 [DB2Py(7)]	280 ± 10 nM	~100%	~100%	~ 100%
CCCn1cc(NC(=O)CCCCCCCCCC(=O)Nc2cc(-c3nc4ccc(-c5nc6ccc(N7CCN(C)CC7)cc6[nH]5)cc4[nH]3)n(CCC)c2)cc1-c1nc2ccc(-c3nc4ccc(N5CCN(C)CC5)cc4[nH]3)cc2[nH]1 [DB2Py(9)]	300 ± 80 nM	~100%	~100%	~ 100%
CCCn1cc(NC(=O)CCCCCCCCCCCC(=O)Nc2cc(-c3nc4ccc(-c5nc6ccc(N7CCN(C)CC7)cc6[nH]5)cc4[nH]3)n(CCC)c2)cc1-c1nc2ccc(-c3nc4ccc(N5CCN(C)CC5)cc4[nH]3)cc2[nH]1 [DB2Py(11)]	900 ± 100 nM	~100%	~100%	~ 100%
CN1CCN(c2ccc3nc(-c4ccc5nc(-c6ccc7nc(CNC(=O)CC(=O)NCc8nc9ccc(-c%10nc%11ccc(-c%12nc%13ccc(N%14CCN(C)CC%14)cc%13[nH]%12)cc%11[nH]%10)cc9[nH]8)[nH]c7c6)[nH]c5c4)[nH]c3c2)CC1 [DB3(1)]	> 50000 nM	70 ± 6%	55 ± 13%	~ 100%
